Experimental data published in patent publication US20240285585A1, “L-ERGOTHIONEINE AND USES THEREOF” (NANJING NUTRABUILDING BIO-TECH CO., LTD., priority 2021, published 2024).

Test system: human polymorphonuclear phagocytes
Assay: in vitro PMN model: ROS formation triggered by fMLP, dihydrorhodamine fluorescence by flow cytometry
Assay type: cell-based
Protocol: L-ergothioneine meeting the purity specifications defined herein was tested using in an in vitro PMN model using cells from a healthy blood donor. Minute samples of blood were exposed to L-ergothioneine (0.01-5 g/L) for 24 hours. The cells were then loaded with the dihydrorhodamine dye, which turns fluorescent upon exposure to ROS. Formation of ROS was triggered by addition of the bacterial peptide f-Met-Leu-Phe (fMLP). The samples were treated with a lysing buffer to eliminate most of the red blood cells in the samples, after which the samples were fixed in formalin. The fluorescence intensity of the PMN cells was evaluated by flow cytometry. The low fluorescence intensity of untreated control cells served as a baseline and PMN cells treated with fMLP alone served as a positive control.
The results are depicted in FIG. 1. […] The percent inhibition is shown as the average±standard deviation of sextuplicate data points for each dose of L-ergothioneine.

## C[N+](C)(C)[C@@H](Cc1c[nH]c(=S)[nH]1)C(=O)[O-] [L-ergothioneine, (2S)-3-(2-thioxo-2,3-dihydro-1H-imidazol-4-yl)-2-(trimethylammonio)-propanoate]
PMN cells from a healthy blood donor, L-ergothioneine 0.01-5 g/L for 24 hours, compared to fMLP alone
  ROS formation in response to the bacterial peptide fMLP: enhanced ROS formation
Across the 0.6 g/L dose reported in human tissue, 24 hours, fMLP-triggered
  increase in ROS formation compared to the control cultures: remained statistically significant
